# Results reported in patent US20220401436A1, “METHODS FOR THE TREATMENT OF CANCERS THAT HAVE ACQUIRED RESISTANCE TO KINASE INHIBITORS” (INSERM (INSTITUTE NATIONAL DE LA SANTÉ ET DE LA RECHERCHE …, priority 2019, published 2022).
# Assays:
# [1] = tested on: PC9; experiment: GFP-transduced PC9 cells treated in vitro, response and relapse followed by fluorescence detection; type: cell-based; details: for emergence of resistant proliferative clones: inhibitor at 1 μM
# [2] = tested on: HCC827; experiment: GFP-transduced HCC827 cells treated in vitro, response and relapse followed by fluorescence detection; type: cell-based; details: for emergence of resistant proliferative clones: inhibitor at 1 μM
# [3] = tested on: HCC4006; experiment: GFP-transduced HCC4006 cells treated in vitro, response and relapse followed by fluorescence detection; type: cell-based; details: for emergence of resistant proliferative clones: inhibitor at 1 μM
# [4] = tested on: TKI-sensitive models; experiment: Relapse in several TKI-sensitive models followed by fluorescence detection (FIG. 1); type: cell-based; details: in combination with TKI; FIG. 1 title
# Method: (§1) FIG. 1. […] (G-H). GFP-transduced H3122 (ALK-translocated NSCLC cell line) or A375 (BRAF-mutated melanoma cell line) were treated by Tipifarnib 0.1 μM in combination with Alectinib (2 μM) or Vemurafenib (5 μM), respectively, and response as well as relapse was followed by fluorescence detection.
# [5] = tested on: H3122 (ALK-translocated NSCLC cell line); experiment: GFP-transduced H3122 cells treated in vitro, response and relapse followed by fluorescence detection; type: cell-based
# Method: as §1
# [6] = tested on: A375 (BRAF-mutated melanoma cell line); experiment: GFP-transduced A375 cells treated in vitro, response and relapse followed by fluorescence detection; type: cell-based
# Method: as §1
# [7] = tested on: EGFR-mutated lung cell lines; experiment: Drug-tolerant cell (DTC) state in a panel of EGFR-mutated lung cell lines; type: cell-based
# Description: Actin polymerization is a tightly regulated process orchestrated by GTPases. Given our knowledge on the role of RHOB in resistance to targeted therapy, we assessed whether this GTPase could be responsible for the production of stress fibers in response to EGFR-TKI.
# [8] = combination of Erlotinib and Tipifarnib; phase I clinical trial; cited from earlier work
# [9] = tested on: HCC2935; type: cell-based
# [10] = tested on: H3255; type: cell-based
# [11] = combination with erlotinib 1 μM
# [12] = Tipifarnib alone at 0.1 μM, data not shown
# [13] = combination with erlotinib 1 μM, Tipifarnib at 0.1 μM
# [14] = combination with erlotinib 1 μM, Tipifarnib at 1 μM
# [15] = Tipifarnib alone at 1 μM vs 0.1 μM, data not shown
# [16] = erlotinib alone, data not shown
smiles,measurement,setting,value
COC(=O)[C@H](CC(C)C)NC(=O)c1ccc(NC[C@@H](N)CS)cc1-c1cccc2ccccc12 [GGTI 298],emergence of resistant proliferative clones,[1]; [11],didn't prevent the emergence of resistant proliferative clones
same,emergence of resistant proliferative clones,[2]; [11],didn't prevent the emergence of resistant proliferative clones
same,emergence of resistant proliferative clones,[3]; [11],didn't prevent the emergence of resistant proliferative clones
same,relapse,[4],not GGTi prevent relapse
"Cn1cncc1[C@@](N)(c1ccc(Cl)cc1)c1ccc2c(c1)c(-c1cccc(Cl)c1)cc(=O)n2C [Tipifarnib, (R)-6-[amino(4-chlorophenyl)(1-methyl-1H-imidazol-5-yl)methyl]-4-(3-chlorophenyl)-1-methyl-2(1H)-quinolinone]",effect on cells growth,[1]; [12],little-to-non effect
same,elimination of drug tolerant cells,[1]; [13],efficiently eliminated all drug tolerant cells
same,emergence of resistant clones,[1]; [13],fully prevented the emergence of resistant clones
same,elimination of drug tolerant cells,[1]; [14],efficiently eliminated all drug tolerant cells
same,emergence of resistant proliferative clones,[1]; [11],fully prevented the emergence of resistant clones
same,effect on cells growth,[2]; [12],little-to-non effect
same,elimination of drug tolerant cells,[2]; [13],efficiently eliminated all drug tolerant cells
same,emergence of resistant clones,[2]; [13],fully prevented the emergence of resistant clones
same,elimination of drug tolerant cells,[2]; [14],efficiently eliminated all drug tolerant cells
same,emergence of resistant proliferative clones,[2]; [11],fully prevented the emergence of resistant clones
same,effect on cells growth,[3]; [12],some cytostatic effect
same,cytostatic effect,[3]; [15],exacerbated
same,elimination of drug tolerant cells,[3]; [13],efficiently eliminated all drug tolerant cells
same,emergence of resistant clones,[3]; [13],fully prevented the emergence of resistant clones
same,elimination of drug tolerant cells,[3]; [14],efficiently eliminated all drug tolerant cells
same,emergence of resistant proliferative clones,[3]; [11],fully prevented the emergence of resistant clones
same,effect on cells growth,[5]; Tipifarnib alone at 0.1 μM,some cytostatic effect
same,cytostatic effect,[5]; [15],exacerbated
same,effect on cells growth,[6]; Tipifarnib alone at 0.1 μM,some cytostatic effect
same,cytostatic effect,[6]; [15],exacerbated
same,cell death / remaining DTC after several days of treatment,"[7]; combination of Tipifarnib and Erlotinib (1 μM), cell lines not named, data not shown",complete cell death
same,relapse,[4],prevent relapse
same,tolerability in patients,[8],well tolerated
C#Cc1cccc(Nc2ncnc3cc(OCCOC)c(OCCOC)cc23)c1 [erlotinib],proliferative resistant clones after erlotinib treatment,[1]; [16],able to generate proliferative resistant clones
same,proliferative resistant clones after erlotinib treatment,[3]; [16],able to generate proliferative resistant clones
same,resistant clones after erlotinib treatment,[9],never observed resistant clones
same,resistant clones after erlotinib treatment,[10],never observed resistant clones
same,generation of DTC,[7],able to generate DTC
C=CC(=O)Nc1cc(Nc2nccc(-c3cn(C)c4ccccc34)n2)c(OC)cc1N(C)CCN(C)C [osimertinib],generation of DTC,[7],able to generate DTC
